From patent US9790219B2, “Compounds, compositions, and methods for increasing CFTR activity” (Proteostasis Therapeutics, Inc., priority 2014, dated 2017)

Target: T1, ΔF508-CFTR (Homo sapiens, UniProt P13569, DEL508-508)
T1 construct: Primary lung epithelial cells homozygous for the Cystic Fibrosis-causing ΔF508 mutation; endogenous in cells; host or cells: primary human lung (bronchial) epithelial cells homozygous for ΔF508, differentiated at air-liquid interface
Test: hBE equivalent current (Ieq) assay
Assay type: cell-based
Conditions: compound at 10 uM together with VX-809 at 1 uM, relative to VX-809 (1 uM); AUC of equivalent chloride current; primary hBE homozygous ΔF508; 24 h treatment
Protocol: Primary lung epithelial cells homozygous for the Cystic Fibrosis-causing ΔF508 mutation were differentiated for a minimum of 4 weeks in an air-liquid interface on Costar 24 well HTS filter plates prior to the equivalent current (Ieq) measurements. Cells were apically mucus-washed for 30 minutes 24 h prior to treatment with compounds. The basolateral media was removed and replaced with media containing the compound of interest diluted to its final concentration from DMSO stocks. Treated cells were incubated at 37° C. and 5% CO2 for 24 hours. At the end of the treatment period, the media was changed to the Ieq experimental solution for 30 minutes before the experiment and plates are maintained in a CO2-free incubator during this period. The plates containing the cells were then placed in pre-warmed heating blocks at 36° C.±0.5 for 15 minutes before measurements are taken. The transepithelial voltage (VT) and conductance (GT) were measured using a custom 24 channel current clamp (TECC-24) with 24 well electrode manifold. The Ieq assay measurements were made following additions with standardized time periods: • 1. The baseline VT and GT values were measured for approximately 20 minutes. • 2. Benzamil was added to block ENaC for 15 minutes. • 3. Forskolin plus VX-770 were added to maximally activate ΔF508-CFTR for 27 minutes. • 4. Bumetanide was added to inhibit the NaK2Cl cotransporter and shut-off secretion of chloride.
The activity data captured was the area under the curve (AUC) for the traces of the equivalent chloride current. The AUC was collected from the time of the forskolin/VX-770 addition until the inhibition by bumetanide addition. Correction in response to compound treatment was scored as the increase in the AUC for compound-treated samples over that of vehicle-treated samples. The results are shown below in Table 2 (++indicates activity ≧25% run at 10 uM of VX-809 at 1 uM; +indicates activity 10 to <25% run at 10 uM of VX-809 at 1 uM; ** indicates activity ≧200% of VX-809 (1 uM) with compound at 10 uM and VX-809 at 1 uM; * indicates activity 100-200% of VX-809 (1 uM) with compound at 10 uM and VX-809 at 1 uM)

T1 sequence (P13569 with tags, fused parts or gaps DEL508-508): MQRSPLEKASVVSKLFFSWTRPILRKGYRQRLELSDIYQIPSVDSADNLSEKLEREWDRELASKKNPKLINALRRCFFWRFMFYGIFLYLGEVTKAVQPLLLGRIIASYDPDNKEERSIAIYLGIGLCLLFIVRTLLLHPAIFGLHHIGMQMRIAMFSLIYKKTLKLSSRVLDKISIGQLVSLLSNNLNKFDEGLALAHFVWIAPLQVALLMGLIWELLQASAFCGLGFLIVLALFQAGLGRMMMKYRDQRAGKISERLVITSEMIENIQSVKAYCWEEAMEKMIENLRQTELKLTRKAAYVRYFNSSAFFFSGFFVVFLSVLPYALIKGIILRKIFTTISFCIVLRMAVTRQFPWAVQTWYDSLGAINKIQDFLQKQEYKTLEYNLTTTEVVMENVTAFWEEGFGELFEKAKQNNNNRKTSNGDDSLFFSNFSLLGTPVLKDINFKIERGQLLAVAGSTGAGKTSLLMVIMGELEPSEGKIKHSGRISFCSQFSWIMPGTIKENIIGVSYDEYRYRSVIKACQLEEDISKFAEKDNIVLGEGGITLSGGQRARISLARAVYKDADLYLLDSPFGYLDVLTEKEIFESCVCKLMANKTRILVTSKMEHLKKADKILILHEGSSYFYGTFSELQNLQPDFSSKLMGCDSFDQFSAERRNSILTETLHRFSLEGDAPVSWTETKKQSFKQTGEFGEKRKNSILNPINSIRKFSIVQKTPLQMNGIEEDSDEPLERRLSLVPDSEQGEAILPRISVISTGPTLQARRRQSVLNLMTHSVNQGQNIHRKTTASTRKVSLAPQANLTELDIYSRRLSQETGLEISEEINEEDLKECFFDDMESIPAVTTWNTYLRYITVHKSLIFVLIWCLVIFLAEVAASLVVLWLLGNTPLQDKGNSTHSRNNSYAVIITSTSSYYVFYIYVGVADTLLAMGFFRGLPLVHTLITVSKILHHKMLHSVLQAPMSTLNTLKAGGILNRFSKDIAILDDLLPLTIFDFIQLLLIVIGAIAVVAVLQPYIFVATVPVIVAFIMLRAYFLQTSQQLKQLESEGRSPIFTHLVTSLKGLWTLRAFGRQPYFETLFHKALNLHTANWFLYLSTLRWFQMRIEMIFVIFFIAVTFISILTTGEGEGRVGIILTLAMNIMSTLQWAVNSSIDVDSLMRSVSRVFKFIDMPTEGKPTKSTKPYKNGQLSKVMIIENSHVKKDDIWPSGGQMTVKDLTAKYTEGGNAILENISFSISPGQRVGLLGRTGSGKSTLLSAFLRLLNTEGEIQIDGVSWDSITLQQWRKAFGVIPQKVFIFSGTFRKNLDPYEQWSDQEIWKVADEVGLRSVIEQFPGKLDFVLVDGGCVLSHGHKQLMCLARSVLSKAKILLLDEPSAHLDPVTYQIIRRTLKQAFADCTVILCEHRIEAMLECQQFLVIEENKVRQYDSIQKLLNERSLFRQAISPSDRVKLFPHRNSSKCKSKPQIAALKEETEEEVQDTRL

Row | Compound | Ieq Activity
1 | O=C(NCCc1nnc(CBr)s1)c1cc(-c2ccccc2)on1 [Compound A3, N-(2-(5-(bromomethyl)-1,3,4-thiadiazol-2-yl)ethyl)-5-phenylisoxazole-3-carboxamide] | ** (** indicates activity ≧200% of VX-809 (1 uM) with compound at 10 uM and VX-809 at 1 uM)
2 | O=C(NCCc1nnc(CO)s1)c1noc(-c2ccccc2)c1F [Compound A11, 4-fluoro-N-(2-(5-(hydroxymethyl)-1,3,4-thiadiazol-2-yl)ethyl)-5-phenylisoxazole-3-carboxamide] | * (* indicates activity 100-200% of VX-809 (1 uM) with compound at 10 uM and VX-809 at 1 uM)
3 | C[C@H](O)c1nnc(CCNC(=O)c2cc(-c3ccccc3)on2)o1 [Compound A18, (S)-N-(2-(5-(1-hydroxyethyl)-1,3,4-oxadiazol-2-yl)ethyl)-5-phenylisoxazole-3-carboxamide] | ** (** indicates activity ≧200% of VX-809 (1 uM) with compound at 10 uM and VX-809 at 1 uM)
4 | O=C(NCCc1nnc(COC(F)(F)F)o1)c1cc(-c2ccccc2)on1 [Compound A15, 5-phenyl-N-(2-(5-((trifluoromethoxy)methyl)-1,3,4-oxadiazol-2-yl)ethyl)isoxazole-3-carboxamide] | * (* indicates activity 100-200% of VX-809 (1 uM) with compound at 10 uM and VX-809 at 1 uM)
5 | COC(C)c1nnc(CCNC(=O)c2cc(-c3ccccc3)on2)o1 (stereo in doubt) [Compound A24-b, (S)-N-(2-(5-(1-methoxyethyl)-1,3,4-oxadiazol-2-yl)ethyl)-5-phenylisoxazole-3-carboxamide] | * (* indicates activity 100-200% of VX-809 (1 uM) with compound at 10 uM and VX-809 at 1 uM)
6 | CC(C)(O)c1nnc(CCNC(=O)c2cc(-c3ccccc3)on2)s1 [Compound A9, N-(2-(5-(2-hydroxypropan-2-yl)-1,3,4-thiadiazol-2-yl)ethyl)-5-phenylisoxazole-3-carboxamide] | ** (** indicates activity ≧200% of VX-809 (1 uM) with compound at 10 uM and VX-809 at 1 uM)
7 | [N-]=[N+]=NCc1nnc(CCNC(=O)c2cc(-c3ccccc3)on2)s1 [Compound A7, N-(2-(5-(azidomethyl)-1,3,4-thiadiazol-2-yl)ethyl)-5-phenylisoxazole-3-carboxamide] | ** (** indicates activity ≧200% of VX-809 (1 uM) with compound at 10 uM and VX-809 at 1 uM)
8 | CO[C@H](C)c1nnc(CCNC(=O)c2cc(-c3ccccc3)on2)s1 [Compound A25-b, (R)-N-(2-(5-(1-methoxyethyl)-1,3,4-thiadiazol-2-yl)ethyl)-5-phenylisoxazole-3-carboxamide] | ** (** indicates activity ≧200% of VX-809 (1 uM) with compound at 10 uM and VX-809 at 1 uM)
9 | C[C@@H](O)c1nnc(CCNC(=O)c2cc(-c3ccccc3)on2)s1 [Compound A13, (R)-N-(2-(5-(1-hydroxyethyl)-1,3,4-thiadiazol-2-yl)ethyl)-5-phenylisoxazole-3-carboxamide] | ** (** indicates activity ≧200% of VX-809 (1 uM) with compound at 10 uM and VX-809 at 1 uM)
10 | O=C(NCCc1nnc(CO)s1)c1noc(-c2ccc(F)cc2)c1F [Compound A12, 4-fluoro-5-(4-fluorophenyl)-N-(2-(5-(hydroxymethyl)-1,3,4-thiadiazol-2-yl)ethyl)isoxazole-3-carboxamide] | * (* indicates activity 100-200% of VX-809 (1 uM) with compound at 10 uM and VX-809 at 1 uM)
11 | O=C(NCCc1nnc(COC(F)(F)F)s1)c1cc(-c2ccccc2)on1 [Compound A16, 5-phenyl-N-(2-(5-((trifluoromethoxy)methyl)-1,3,4-thiadiazol-2-yl)ethyl)isoxazole-3-carboxamide] | * (* indicates activity 100-200% of VX-809 (1 uM) with compound at 10 uM and VX-809 at 1 uM)
12 | C[C@@H](O)c1nnc(CCNC(=O)c2cc(-c3ccccc3)on2)o1 [Compound A14, (R)-N-(2-(5-(1-hydroxyethyl)-1,3,4-oxadiazol-2-yl)ethyl)-5-phenylisoxazole-3-carboxamide] | * (* indicates activity 100-200% of VX-809 (1 uM) with compound at 10 uM and VX-809 at 1 uM)
13 | CC(C)c1nnc(CCNC(=O)c2cc(-c3ccccc3)on2)o1 [Compound A8, N-(2-(5-isopropyl-1,3,4-oxadiazol-2-yl)ethyl)-5-phenylisoxazole-3-carboxamide] | ** (** indicates activity ≧200% of VX-809 (1 uM) with compound at 10 uM and VX-809 at 1 uM)
14 | COCc1nnc(CCNC(=O)c2cc(-c3ccccc3)on2)s1 [Compound A4, N-(2-(5-(methoxymethyl)-1,3,4-thiadiazol-2-yl)ethyl)-5-phenylisoxazole-3-carboxamide] | ** (** indicates activity ≧200% of VX-809 (1 uM) with compound at 10 uM and VX-809 at 1 uM)
15 | O=C(NCCc1nnc(C(O)C(F)(F)F)s1)c1cc(-c2ccccc2)on1 (stereo not drawn) [Compound A23, 5-phenyl-N-(2-(5-(2,2,2-trifluoro-1-hydroxyethyl)-1,3,4-thiadiazol-2-yl)ethyl)isoxazole-3-carboxamide] | ** (** indicates activity ≧200% of VX-809 (1 uM) with compound at 10 uM and VX-809 at 1 uM)
16 | COCc1nnc(CCNC(=O)c2cc(-c3ccccc3)on2)o1 [Compound A5, N-(2-(5-(methoxymethyl)-1,3,4-oxadiazol-2-yl)ethyl)-5-phenylisoxazole-3-carboxamide] | ** (** indicates activity ≧200% of VX-809 (1 uM) with compound at 10 uM and VX-809 at 1 uM)
17 | CC(C)(O)c1nnc(CCNC(=O)c2cc(-c3ccccc3)on2)o1 [Compound A10, N-(2-(5-(2-hydroxypropan-2-yl)-1,3,4-oxadiazol-2-yl)ethyl)-5-phenylisoxazole-3-carboxamide] | ** (** indicates activity ≧200% of VX-809 (1 uM) with compound at 10 uM and VX-809 at 1 uM)
18 | COC(C)c1nnc(CCNC(=O)c2cc(-c3ccccc3)on2)o1 (stereo in doubt) [Compound A24-a, (R)-N-(2-(5-(1-methoxyethyl)-1,3,4-oxadiazol-2-yl)ethyl)-5-phenylisoxazole-3-carboxamide] | * (* indicates activity 100-200% of VX-809 (1 uM) with compound at 10 uM and VX-809 at 1 uM)
19 | Cc1nnc(CCCNC(=O)c2cc(-c3ccccc3)on2)s1 [Compound A6, N-(3-(5-methyl-1,3,4-thiadiazol-2-yl)propyl)-5-phenylisoxazole-3-carboxamide] | ** (** indicates activity ≧200% of VX-809 (1 uM) with compound at 10 uM and VX-809 at 1 uM)
20 | CO[C@@H](C)c1nnc(CCNC(=O)c2cc(-c3ccccc3)on2)s1 [Compound A25-a, (S)-N-(2-(5-(1-methoxyethyl)-1,3,4-thiadiazol-2-yl)ethyl)-5-phenylisoxazole-3-carboxamide] | ** (** indicates activity ≧200% of VX-809 (1 uM) with compound at 10 uM and VX-809 at 1 uM)

Target: T1, ΔF508-CFTR
Test: Ussing measurements
Assay type: cell-based
Conditions: compound at 10 uM together with VX-809 at 1 uM, relative to VX-809 (1 uM); CFTRinh-172 inhibitable short-circuit current; primary hBE homozygous ΔF508; 24 h treatment
Protocol: As discussed above, Ussing measurements can be used to measure CFTR activity. In this method, primary lung epithelial cells (hBEs) homozygous for the Cystic Fibrosis-causing ΔF508 mutation are differentiated for a minimum of 4 weeks in an air-liquid interface on SnapWell filter plates prior to the Ussing measurements. Cells are apically mucus-washed for 30 minutes prior to treatment with compounds. The basolateral media is removed and replaced with media containing the compound of interest diluted to its final concentration from DMSO stocks. Treated cells are incubated at 37° C. and 5% CO2 for 24 hours. At the end of the treatment period, the cells on filters are transferred to the Ussing chamber and equilibrated for 30 minutes. The short-circuit current is measured in voltage clamp-mode (Vhold=0 mV), and the entire assay is conducted at a temperature of 36° C.-36.5° C. Once the voltages stabilized, the chambers are clamped, and data is recorded by pulse readings every 5 seconds. Following baseline current stabilization, the following additions can be applied and the changes in current and resistance of the cells can be monitored: • 1. Benzamil to the apical chamber to inhibit ENaC sodium channel. • 2. Forskolin to both chambers to activate ΔF508-CFTR by phosphorylation. • 3. Genistein to both chambers to potentiate ΔF508-CFTR channel opening. • 4. CFTRinh-172 to the apical chamber to inhibit ΔF508-CFTR Cl-conductance.
The inhibitable current (that current that is blocked by CFTRinh-172) is measured as the specific activity of the ΔF508-CFTR channel, and increases in response to compound in this activity over that observed in vehicle-treated samples are identified as the correction of ΔF508-CFTR function imparted by the compound tested.

Row | Compound | Ussing
21 | C[C@H](O)c1nnc(CCNC(=O)c2cc(-c3ccccc3)on2)o1 [Compound A18, (S)-N-(2-(5-(1-hydroxyethyl)-1,3,4-oxadiazol-2-yl)ethyl)-5-phenylisoxazole-3-carboxamide] | ** (** indicates activity ≧200% of VX-809 (1 uM) with compound at 10 uM and VX-809 at 1 uM)
